The numbers were not newly measured in patent US6218102A, “Synthetic peptides and mixtures thereof for detecting HIV antibodies” (priority 1988, dated 2001), which cites them from elsewhere.

Where two headings read alike, the source gives them in different places.

In this data set the test system is antibodies of patients infected by the AIDS viruses. The conditions noted are these: cited from earlier work.

In the case of “SGKLICTTAVPWNAS [short synthetic peptide covering residues 606 to 620 of gp 41 (HIV-1), Ser. No. 120,027]”, the specificity (U.S. Ser. No. 120,027, seronegative specimens correctly identified) is on record as 63/63. For the same substance, the sensitivity (U.S. Ser. No. 120,027, six of 57 confirmed positive not detected) is 89%.
Take SGKLIC: the “immunoreactivity with HIV-1 positive sera” value (Gnann et al., 22 HIV-1 positive sera) is reported as “not immunoreactive with any of the 22 HIV-1 positive sera tested”.
In the case of “12-amino acid sequence (600-611): 12-amino acid sequence 600-611 from gp 41 (HIV-1), Gnann et al.”, the positive sera detected is reported as 78 out of 79 (Center for Disease Control, Atlanta) and 22 out of 22 (Gnann et al., Journal of Virology 1987). Besides, where the note is “J. Infect. Dis. 156, 1987, patients from the United States”, the HIV-1-infected patients reactive was 131 out of 132.
